In ChEMBL document CHEMBL5543150, “Design, Synthesis, and Pharmacological Evaluation of Spiro[carbazole-3,3'-pyrrolidine] Derivatives as cGAS Inhibitors for Treatment of Acute Lung Injury” (J Med Chem, 2024):
“And” between values parts separate entries of the source, which are not always exact repeats. Equal values may be shown once.

What was measured:
[1] = biological target: T1, Cyclic GMP-AMP synthase (Homo sapiens, UniProt Q8N884); test: Inhibition of cGAS in human THP1-Dual cells preincubated for 1 hr followed by cGAMP addition and measured after 24 hrs by luminescence based QUANTI-Luc assay
[2] = in vivo; conditions: rat, po, 3 mg/kg
Description: Oral bioavailability in rat at 3 mg/kg

[3] = MRT last in rat at 1 mg/kg, iv; conditions: in vivo
[4] = biological target: T2, Cyclic GMP-AMP synthase (Mus musculus, UniProt Q8C6L5); test: Inhibition of cGAS in mouse RAW-Lucia ISG cells preincubated for 1 hr followed by cGAMP addition and measured after 24 hrs by luminescence based QUANTI-Luc assay
[5] = Cytotoxicity against mouse RAW-Lucia ISG cells incubated for 24 hrs by CCK-8 method
[6] = biological target: T2, Cyclic GMP-AMP synthase; test: Inhibition of cGAS in dsDNA activated mouse RAW-Lucia ISG cells preincubated for 1 hr followed by cGAMP addition and measured after 24 hrs by luminescence based QUANTI-Luc assay
[7] = MRT last in rat at 3 mg/kg, po; conditions: in vivo
[8] = in vivo; conditions: rat, po, 3 mg/kg; remark: listed apart in the source
Description: Tmax in rat at 3 mg/kg, po

[9] = in vivo; conditions: rat, po, 3 mg/kg; remark: listed apart in the source
Description: Cmax in rat at 3 mg/kg, po

[10] = biological target: T1, Cyclic GMP-AMP synthase; test: Inhibition of full length recombinant human cGAS expressed in Escherichia coli BL21 (DE3) incubated for 7 hrs by Kinase-glo max luminescent kinase assay
[11] = Half life in rat at 3 mg/kg, po; conditions: in vivo
[12] = biological target: T1, Cyclic GMP-AMP synthase; test: Inhibition of cGAS in dsDNA stimulated human THP-1 cells assessed as inhibition of IFNB1 mRNA level by qRT-PCR analysis
[13] = in vivo; conditions: rat, iv, 1 mg/kg
[14] = Half life in rat at 1 mg/kg, iv; conditions: in vivo
[15] = biological target: T1, Cyclic GMP-AMP synthase; test: Binding affinity to human cGAS assessed as dissociation constant measured upto 240 secs by surface plasmon resonance assay
[16] = in vivo; conditions: rat, po, 3 mg/kg; remark: listed apart in the source
Description: AUC last in rat at 3 mg/kg, po

[17] = in vivo; conditions: rat, iv, 1 mg/kg; remark: listed apart in the source
[18] = Volume of distribution at steady state in rat at 1 mg/kg, iv; conditions: in vivo
[19] = system: THP1-Dual; test: Cytotoxicity against human THP1-Dual cells incubated for 24 hrs by CCK-8 method
[20] = biological target: T1, Cyclic GMP-AMP synthase; test: Inhibition of cGAS in dsDNA activated human THP1-Dual cells preincubated for 1 hr followed by cGAMP addition and measured after 24 hrs by luminescence based QUANTI-Luc assay
[21] = biological target: T1, Cyclic GMP-AMP synthase; test: Inhibition of human cGas incubated for 120 mins
[22] = biological target: T2, Cyclic GMP-AMP synthase; test: Inhibition of mouse cGas incubated for 120 mins
[23] = biological target: T2, Cyclic GMP-AMP synthase

T1 sequence (Q8N884 whole entry): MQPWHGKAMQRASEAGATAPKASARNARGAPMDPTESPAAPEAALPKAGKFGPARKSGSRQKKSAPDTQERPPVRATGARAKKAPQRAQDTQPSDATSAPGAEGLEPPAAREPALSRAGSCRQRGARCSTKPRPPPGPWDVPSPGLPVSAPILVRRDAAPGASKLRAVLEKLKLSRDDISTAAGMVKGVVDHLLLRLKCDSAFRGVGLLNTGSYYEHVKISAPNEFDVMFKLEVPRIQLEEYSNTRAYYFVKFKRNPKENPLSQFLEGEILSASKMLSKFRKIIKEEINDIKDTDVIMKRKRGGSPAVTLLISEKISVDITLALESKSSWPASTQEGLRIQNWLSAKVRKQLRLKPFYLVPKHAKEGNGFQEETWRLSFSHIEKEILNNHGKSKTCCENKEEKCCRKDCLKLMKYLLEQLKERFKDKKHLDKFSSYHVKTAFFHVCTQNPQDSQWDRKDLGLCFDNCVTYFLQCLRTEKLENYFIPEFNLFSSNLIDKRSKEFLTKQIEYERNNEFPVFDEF
T2 sequence (Q8C6L5 whole entry): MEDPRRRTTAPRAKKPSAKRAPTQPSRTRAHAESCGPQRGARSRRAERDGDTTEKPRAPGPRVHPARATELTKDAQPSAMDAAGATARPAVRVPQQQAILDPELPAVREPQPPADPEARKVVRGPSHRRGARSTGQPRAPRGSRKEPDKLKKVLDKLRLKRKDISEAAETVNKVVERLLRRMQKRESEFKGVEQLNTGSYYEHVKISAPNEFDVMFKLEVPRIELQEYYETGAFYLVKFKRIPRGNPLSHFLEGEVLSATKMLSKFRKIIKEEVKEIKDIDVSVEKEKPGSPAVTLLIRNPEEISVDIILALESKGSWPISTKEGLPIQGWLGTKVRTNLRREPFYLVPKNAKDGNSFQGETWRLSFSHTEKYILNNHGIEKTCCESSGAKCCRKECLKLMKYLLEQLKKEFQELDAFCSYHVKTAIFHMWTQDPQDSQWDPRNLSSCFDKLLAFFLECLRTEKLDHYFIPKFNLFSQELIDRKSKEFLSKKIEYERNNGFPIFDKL

Compound	IC50 [1] [µM]	CC50 [19] [µM]	also measured
Cn1ccc(-c2cc(Cl)c(Cl)c3[nH]c4c(c23)CN(C(=O)CO)CC4)n1	4.82		bioavailability [2]: 64.1%; MRT last [3]: 1.5 h; IC50 [4]: 14.6 µM and > 10 µM; CC50 [5]: 51.8 µM; IC50 [6]: 14.6 µM; MRT last [7]: 3.56 h; Tmax [8]: 2.67 h; Cmax [9]: 375 ng/mL; IC50 [10]: 0.051 µM; half-life [11]: 1.31 h; IC50 [12]: 1.7 µM; clearance [13]: 20.7 mL/min/kg; half-life [14]: 1.03 h; Kd [15]: 0.053 µM; AUC(0-t) [16]: 1520 ng·h/mL; AUC(0-t) [17]: 792 ng·h/mL; Vd [18]: 1.88 L/kg
Cn1ccc(-c2cc(Cl)c(Cl)c3[nH]c4c(c23)CC2(CC4)CCN(C(=O)CO)CC2)n1	12.9	> 50	
O=C(CO)N1CCC2(CCc3[nH]c4c(Cl)c(Cl)cc(-c5ccc(C(F)(F)F)nc5)c4c3C2)C1 (stereo not given)	8.66	31.7	
O=C(CO)N1CCC2(CCc3[nH]c4c(Cl)c(Cl)cc(-c5ccnc(F)c5)c4c3C2)C1 (stereo not given)	6.27	13.6	
O=C(CO)N1CCC2(CCc3[nH]c4c(Cl)c(Cl)cc(-c5ccnc(OC(F)F)c5)c4c3C2)C1 (stereo not given)	6.41	13.2	
Cn1cc(-c2cc(Cl)c(Cl)c3[nH]c4c(c23)CC2(CC4)CCN(C(=O)CO)C2)cn1 (stereo not given)	24.7	> 50	
O=C(CO)N1CCC2(CCc3[nH]c4c(Cl)c(Cl)cc(-c5cnn(C6CCNCC6)c5)c4c3C2)C1 (stereo not given)	12.9	> 50	
C[C@@H](O)C(=O)N1CCC2(CCc3[nH]c4c(Cl)c(Cl)cc(-c5ccnc(C(F)(F)F)c5)c4c3C2)C1 (stereo not given in full)	17.6	39.1	
Cn1ccc(-c2cc(Cl)c(Cl)c3[nH]c4c(c23)CC2(CC4)CN(C(=O)CO)C2)n1	36	17.7	
O=C(CO)N1CCC2(CCc3[nH]c4c(Cl)c(Cl)cc(-c5ccnc(C(F)(F)F)c5)c4c3C2)C1 (stereo not given)	4.45	34	bioavailability [2]: 30%; MRT last [3]: 3.59 h; IC50 [4]: 11.4 µM; IC50 [6]: 11.4 µM; MRT last [7]: 2.99 h; Tmax [8]: 0.667 h; Cmax [9]: 223 ng/mL; half-life [11]: 1.82 h; clearance [13]: 15.5 mL/min/kg; half-life [14]: 3.36 h; IC50 [20]: 4.45 µM; AUC(0-t) [16]: 920 ng·h/mL; AUC(0-t) [17]: 1070 ng·h/mL; Vd [18]: 4.48 L/kg
Cn1ccc(-c2cc(Cl)c(Cl)c3c2[C@@H]2CN(C(=O)CO)CC[C@@H]2N3)n1	> 50	> 50	
O=C(CO)N1CCC2(CCc3[nH]c4c(Cl)c(Cl)cc(-c5cnc(C(F)(F)F)nc5)c4c3C2)C1 (stereo not given)	7.54	34	IC50 [20]: 7.54 µM
Cn1ccc(-c2cc(Cl)c(Cl)c3[nH]c4c(c23)CC(NC(=O)CO)CC4)n1 (stereo not given)	> 50	> 50	
Cn1ccc(-c2cc(Cl)c(Cl)c3[nH]c4c(c23)CC2(CC4)CCN(C(=O)CO)C2)n1 (stereo not given)	7.65	> 50	IC50 [4]: 8.91 µM; IC50 [6]: 8.91 µM; IC50 [20]: 7.65 µM
CS(=O)(=O)CC(=O)N1CCC2(CCc3[nH]c4c(Cl)c(Cl)cc(-c5ccnc(C(F)(F)F)c5)c4c3C2)C1 (stereo not given)	9.48	10.4	
Cn1ccc(-c2cc(Cl)c(Cl)c3[nH]c4c(c23)CC2(CCN(C(=O)CO)CC2)C4)n1	37.4	> 50	
N#Cc1cc(-c2cc(Cl)c(Cl)c3[nH]c4c(c23)CC2(CC4)CCN(C(=O)CO)C2)ccn1 (stereo not given)	6.35	10.3	
Nc1cc(-c2cc(Cl)c(Cl)c3[nH]c4c(c23)CC2(CC4)CCN(C(=O)CO)C2)ccn1 (stereo not given)	6.45	> 50	IC50 [4]: 4.71 µM; IC50 [6]: 4.71 µM; IC50 [20]: 6.45 µM

Compound	IC50 [1] [µM]	CC50 [19] [µM]	also measured
C[C@H](O)[C@@H](N)C(=O)N1CCC2(CCc3[nH]c4c(Cl)c(Cl)cc(-c5ccnc(C(F)(F)F)c5)c4c3C2)C1 (stereo not given in full)	11	30.3	
NCC(=O)N1CCC2(CCc3[nH]c4c(Cl)c(Cl)cc(-c5ccnc(C(F)(F)F)c5)c4c3C2)C1 (stereo not given)	3.41	11.1	
C[C@@H](N)C(=O)N1CCC2(CCc3[nH]c4c(Cl)c(Cl)cc(-c5ccnc(C(F)(F)F)c5)c4c3C2)C1 (stereo not given in full)	6.94	7.08	
O=C(CO)N1CCC2(CCc3[nH]c4c(Cl)c(Cl)cc(-c5ccc(F)nc5F)c4c3C2)C1 (stereo not given)	7.15	33.4	
Cn1nc(C(F)(F)F)cc1-c1cc(Cl)c(Cl)c2[nH]c3c(c12)CC1(CC3)CCN(C(=O)CO)C1 (stereo not given)	5.82	17.3	
Nc1ccc(-c2cc(Cl)c(Cl)c3[nH]c4c(c23)CC2(CC4)CCN(C(=O)CO)C2)cn1 (stereo not given)	8.04	47.8	IC50 [20]: 8.04 µM
O=C(CO)N1CCC2(CCc3[nH]c4c(Cl)c(Cl)cc(-c5cn[nH]c5)c4c3C2)C1 (stereo not given)	5.86	13.7	
O=C(CO)N1CCC2(CCc3[nH]c4c(Cl)c(Cl)cc(-c5ccnc(C(F)F)c5)c4c3C2)C1 (stereo not given)	6.43	10.6	
C[C@H](N)C(=O)N1CCC2(CCc3[nH]c4c(Cl)c(Cl)cc(-c5ccnc(C(F)(F)F)c5)c4c3C2)C1 (stereo not given in full)	4.3	16.4	
O=C(CO)N1CCC2(CCc3[nH]c4c(Cl)c(Cl)cc(-c5cnn(C(F)F)c5)c4c3C2)C1 (stereo not given)	5.8	37.7	IC50 [4]: 8.69 µM; IC50 [6]: 8.69 µM; IC50 [20]: 5.8 µM
Cn1ncc(-c2cc(Cl)c(Cl)c3[nH]c4c(c23)CC2(CC4)CCN(C(=O)CO)C2)n1 (stereo not given)	10.5	26.3	
N#Cc1ncc(-c2cc(Cl)c(Cl)c3[nH]c4c(c23)CC2(CC4)CCN(C(=O)CO)C2)cc1F (stereo not given)	7.82	33.1	
C[C@H](O)C(=O)N1CCC2(CCc3[nH]c4c(Cl)c(Cl)cc(-c5ccnc(C(F)(F)F)c5)c4c3C2)C1 (stereo not given in full)	38.8	12.7	
Cc1nn(-c2cc3ccc(Cl)c(Cl)c3[nH]2)c(O)c1C1OC(=O)c2ccccc21 (stereo not given)			IC50 [21]: 0.11 µM; IC50 [22]: 2.94 µM
O=C(CO)N1CCC2(CCc3[nH]c4c(Cl)c(Cl)cc(-c5ccnc(C(F)(F)F)n5)c4c3C2)C1 (stereo not given)	4.26	14.4	
CC(C)=C(C#N)C(=O)N1CCC2(CCc3[nH]c4c(Cl)c(Cl)cc(-c5ccnc(C(F)(F)F)c5)c4c3C2)C1 (stereo not given)	8.46	45.1	
C#CC(=O)N1CCn2cccc2C1c1ccccc1 (stereo not given)			IC50 [23]: 0.97 µM
